Source: article PMC11413503, “SCR‐7952, a highly selective MAT2A inhibitor, demonstrates synergistic antitumor activities in combination with the S‐adenosylmethionine‐competitive or the methylthioadenosine‐cooperative protein arginine methyltransferase 5 inhibitors in methylthioadenosine phosphorylase‐deleted tumors” (MedComm, 2024)
Where “and” joins values, the source holds several entries; their conditions need not be identical. Identical values can stand only once. Like-named read-outs stand apart in the source and are kept apart here.

Key:
[1] = system: HCT116 MTAP−/− xenograft; test: Xenograft combination treatment study; assay type: in vivo, mice; details: JNJ-64619178 1.0 mg/kg alone
Experimental: (§1) Subcutaneous injections of HCT116 MTAP ^−/− cells were performed (5 × 10^6 cells in 100 µL) into Nu/Nu female mice. Mice were observed daily for the development of tumors. Six days after tumor implantation, mice were randomly distributed into different groups. SCR‐7952, AG‐270, JNJ‐64619178, or vehicle (water with 5% N‐methylpyrrolidone and 10% solutol HS‐15) were daily administrated by oral gavage. Tumor volumes and body weights were recorded three times per week. Tumor volumes were measured in two dimensions using a caliper, and the volume was expressed in mm^3 using the formula: V = (L × W × W)/2, where V is tumor volume, L is tumor length (the longest tumor dimension), and W is tumor width (perpendicular to L). The tumor growth inhibition rate (TGI%) of each dosing group was calculated according to the following formula: %TGI = (1 − (V t(treatment group) − V 0(treatment group))/(V t(vehicle group) − V 0(vehicle group))) × 100%, where V t is average tumor volume of a dosing group on a specific day, V 0 is average tumor volume of a dosing group on the initial day. At the end of the study, plasma and tumor tissues were collected and stored at −80°C for further measurement.

[2] = system: FANCA; test: RT-PCR of FANCA and DI-containing transcripts; assay type: cell-based; details: 72 h
[3] = system: SDMA; test: Tumor SDMA levels in combination xenograft study; assay type: in vivo, mice; details: JNJ-64619178 1.0 mg/kg alone
[4] = system: SDMA; test: Immunoblot of SDMA (PRMT5-dependent mark); assay type: cell-based; details: 96 h, HCT116 MTAP−/− cells
[5] = system: mixed-lineage leukemia-rearranged (MLLr) leukemia; design: method as in PMID 32456310; details: read-out: IC50, antiproliferation in MLLr leukemia; cited from earlier work
[6] = system: Huh-7 cells; design: method as in PMID 28553945; details: read-out: IC50, antiproliferative effect on Huh-7 cells; cited from earlier work
[7] = biological target: T1, MAT2A (Homo sapiens, UniProt P31153); design: method as in PMID 28553945; details: chemical assay; cited from earlier work
T1 construct: purchased Pharmaron 210405‐HWR‐20210429

[8] = system: HCT116 MTAP−/− subcutaneous xenograft; test: Xenograft efficacy study, monotherapy; assay type: in vivo, mice; details: AG-270 200 mg/kg oral
Experimental: An efficacy study in an HCT116 MTAP ^−/− subcutaneous xenograft mouse model was performed to evaluate the antitumor effect of SCR‐7952, with once daily (q.d.) oral dosing of 0.25, 0.5, 1.0, or 3.0 mg/kg, respectively.
Nu/Nu female mice (6–12 weeks old; Beijing Vital River Laboratory Animal Technology Co., Ltd.) were used for in vivo xenograft studies. All experimental procedures involving animals and their care were in accordance with the State Council Regulations for Laboratory Animal Management (Enacted in 1988) and approved by the Institutional Animal Care and Use Committee of Jiangsu Simcere Pharmaceutical Co., Ltd. (IACUC; Approval No. AP‐056).
as §1

[9] = Plasma pharmacokinetics after multiple administration in xenograft mice; assay type: in vivo; details: AG-270 200 mg/kg
[10] = system: WI-38 (human fetal lung fibroblast cells); test: Proliferation assay (CellTiter-Glo); assay type: cell-based; details: Homo sapiens, WI-38, MTAP WT; read-out: IC50, anti-proliferation WI-38
Experimental: (§2) HCT116 colon carcinoma parental (WT) cells with MTAP ^−/− isogenic clone were established by KYinno Biotechnology Co., Ltd. (Beijing, China). A549, MIA PaCa‐2, and WI‐38 cell lines were obtained from ATCC. NCI‐H838 was obtained from Cobioer Biosciences. HCT116 WT and KO MTAP cells were cultured in McCoy's 5A media containing 10% FBS. A549 cells were cultured in DMEM media containing 10% FBS. MIA PaCa‐2 cells were cultured in DMEM media containing 10% FBS and 2.5% horse serum. NCI‐H838 cells were cultured in PRMI 1640 media containing 10% FBS. WI‐38 cells were cultured in EMEM media containing 10% FBS.
(§3) Cells were plated in 96‐well cell culture plates and allowed to attach overnight at 37°C in 5% CO2. Compounds diluted in DMSO were added to cells in a dose–response format for 6 days. The final concentration of DMSO was 0.1% in media. Cell proliferation was measured using CellTiter‐Glo Cell Viability Assay (Promega). The IC50 values were calculated using the GraphPad Prism 9. Drug combination effects were analyzed using Combenefit software.[45]

[11] = system: A549; test: Proliferation assay (CellTiter-Glo); assay type: cell-based; details: Homo sapiens, A549, 144 h; MTAP-deleted, 6-day; read-out: IC50, anti-proliferation A549
Experimental: as §2, §3

[12] = system: HCT116 WT cells; test: Proliferation assay (CellTiter-Glo); assay type: cell-based; details: Homo sapiens, HCT-116, 144 h; 6-day treatment; read-out: IC50, anti-proliferation HCT116 WT
Experimental: as §2, §3

[13] = system: HCT116 MTAP−/− cells; test: Proliferation assay (CellTiter-Glo); assay type: cell-based; details: Homo sapiens, HCT-116, 144 h; 6-day treatment; read-out: IC50, anti-proliferation HCT116 MTAP−/−
Experimental: as §2, §3

[14] = system: MIA PaCa-2; test: Proliferation assay (CellTiter-Glo); assay type: cell-based; details: Homo sapiens, MIA PaCa-2, 144 h; MTAP-deleted, 6-day; read-out: IC50, anti-proliferation MIA PaCa-2
Experimental: as §2, §3

[15] = system: NCI-H838; test: Proliferation assay (CellTiter-Glo); assay type: cell-based; details: Homo sapiens, NCI-H838, 144 h; MTAP-deleted, 6-day; read-out: IC50, anti-proliferation NCI-H838
Experimental: as §2, §3

[16] = system: UGT1A1; design: method as in PMID 16765731; details: off-target activity of AG-270; cited from earlier work
[17] = system: HCT116 MTAP−/− cells; test: Intracellular SAM inhibition assay; assay type: cell-based; details: Homo sapiens, HCT-116, 6 h, read-out: IC50, cellular SAM levels
Experimental: MAT2A inhibition in the cellular environment was monitored by measurement of the abundance of its product SAM in HCT116 MTAP ^−/− cells. HCT116 MTAP ^−/− cells were plated in 96‐well cell culture plates at 50,000 cells per well and allowed to attach overnight at 37°C in 5% CO2. Compounds were added in a dose–response format to generate a 10‐point dose–response curve. Doses were started at a 10 µM top concentration with 1:5 serial dilution. After 6 h of incubation, the medium was removed and cells were extracted with 50% methanol containing 1 M acetic acid for SAM metabolite measurement by UPLC‐MS/MS.
The standard SAM solution was prepared in a surrogate matrix of 50% methanol containing 1 M acetic acid with a concentration range of 3–1000 ng/mL. The quality control sample was prepared in the same surrogate matrix. SAM‐d 3 was used as the internal standard (IS). A Waters UPLC system coupled with a SCIEX Triple Quad™ 6500^+ mass spectrometer […] was used to analyze the samples. Samples were separated on an ACQUITY UPLC® BEH amide column (2.1 × 50 mm, 1.7 µm). The mobile phase consisted of 5% acetonitrile containing 5 mM NH4OAc and 1% (v/v) formic acid (A) and 95% acetonitrile containing 5 mM NH4OAc and 1% (v/v) formic acid (B). […] SAM and SAM‐d 3 were detected with multiple‐reaction monitoring of a mass transition pair at m/z 399.2/250.2 and […], respectively.

[18] = Plasma bilirubin in mice after oral treatment; assay type: in vivo; details: AG-270 200 mg/kg, 2 h after final dose
[19] = system: MTAP-deleted squamous NSCLC; design: method as in NCT04794699; details: 3/4 patients, up to 50% circulating tumor DNA decrease; ref NCT04794699; cited from earlier work
[20] = biological target: T1, MAT2A; design: method as in earlier work; details: read-out: IC50, inhibition of MAT2A activity; cited from earlier work
[21] = system: MTAP−/− cancer cells; design: method as in earlier work; details: read-out: IC50, antiproliferation on MTAP−/− cancer cells; cited from earlier work

T1 sequence (P31153 whole entry): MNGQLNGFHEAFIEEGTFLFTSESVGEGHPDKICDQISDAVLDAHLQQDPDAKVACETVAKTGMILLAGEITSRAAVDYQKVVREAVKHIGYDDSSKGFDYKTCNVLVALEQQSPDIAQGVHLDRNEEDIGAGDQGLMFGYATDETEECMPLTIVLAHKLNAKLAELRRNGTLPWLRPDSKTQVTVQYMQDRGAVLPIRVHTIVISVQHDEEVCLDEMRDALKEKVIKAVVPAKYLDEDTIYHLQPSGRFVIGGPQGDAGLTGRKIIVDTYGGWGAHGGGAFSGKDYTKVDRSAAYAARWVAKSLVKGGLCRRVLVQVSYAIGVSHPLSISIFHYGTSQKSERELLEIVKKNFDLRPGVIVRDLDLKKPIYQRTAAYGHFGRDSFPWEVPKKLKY

## Nc1nc2cc(CC[C@H]3C[C@@H](n4ccc5c(N)ncnc54)[C@H](O)[C@@H]3O)ccc2cc1Br [JNJ‐64619178, reference compound]
[1]
  TGI: 54.0%
[2]
  expression of FANCA DI-containing transcripts: increase of FANCA DI‐containing transcripts
[3]
  tumor SDMA levels: remarkable reduction
[4]
  SDMA level (immunoblot): reduction of SDMA

## CN(C)CCc1nnc2cc(-c3ccccc3)c3cc(Cl)ccc3n12 [PF‐9366]
[5]
  IC50: ~10000 nM
[6]
  IC50: ~10000 nM and 10000 nM
[7]
  IC50: 420 nM

## COc1ccc(-c2c(Nc3ccccn3)[nH]c3c(C4=CCCCC4)c(-c4ccccc4)nn3c2=O)cc1 [AG‐270, reference compound]
[8]
  TGI: 52.0%
[9]; calculated
  AUC0-24h free drug: 3.829 µg·h/mL
[9]; Nu/Nu, mouse, oral, plasma, HCT116 MTAP−/− xenograft mice, read-out: AUC0-24h total
  AUC(0-t): 383 µg·h/mL
[10]
  IC50: 1410 nM
[11]
  IC50: 646 nM
[12]
  IC50: 1220 nM
[13]
  IC50: 300 nM
[14]
  IC50: 935 nM
[15]
  IC50: 93.9 nM
[16]
  IC50: 1100 nM
[17]
  IC50: 5.8 nM
[18]
  effect on plasma total, direct and unconjugated bilirubin: remarkably increased

## Nc1nc(=O)n(-c2ccccc2Cl)c2nc(C(F)(F)F)ccc12 [IDE397]
[19]
  molecular responses: 75%
[20]
  IC50: ~10 nM
[21]
  IC50: ~20 nM
